Assay [1] addresses T1, ERBB2 (Homo sapiens, UniProt P04626).
T1 construct: purchased DiscoveRx KINOMEscan
Type of assay: binding. The following applies: for remaining binding at 10 µM: read-out: Percent control.

Assay [2] addresses ALK (Homo sapiens, UniProt Q9UM73). To be noted: 10 μM.
Assay [3] deals with FGFR2 (Homo sapiens, UniProt P21802). The following applies: 10 μM.
In assay [4] the target is T2, FLT3(D835Y) (Homo sapiens, UniProt P36888, D835Y).
T2 sequence (P36888 27-993 D835Y): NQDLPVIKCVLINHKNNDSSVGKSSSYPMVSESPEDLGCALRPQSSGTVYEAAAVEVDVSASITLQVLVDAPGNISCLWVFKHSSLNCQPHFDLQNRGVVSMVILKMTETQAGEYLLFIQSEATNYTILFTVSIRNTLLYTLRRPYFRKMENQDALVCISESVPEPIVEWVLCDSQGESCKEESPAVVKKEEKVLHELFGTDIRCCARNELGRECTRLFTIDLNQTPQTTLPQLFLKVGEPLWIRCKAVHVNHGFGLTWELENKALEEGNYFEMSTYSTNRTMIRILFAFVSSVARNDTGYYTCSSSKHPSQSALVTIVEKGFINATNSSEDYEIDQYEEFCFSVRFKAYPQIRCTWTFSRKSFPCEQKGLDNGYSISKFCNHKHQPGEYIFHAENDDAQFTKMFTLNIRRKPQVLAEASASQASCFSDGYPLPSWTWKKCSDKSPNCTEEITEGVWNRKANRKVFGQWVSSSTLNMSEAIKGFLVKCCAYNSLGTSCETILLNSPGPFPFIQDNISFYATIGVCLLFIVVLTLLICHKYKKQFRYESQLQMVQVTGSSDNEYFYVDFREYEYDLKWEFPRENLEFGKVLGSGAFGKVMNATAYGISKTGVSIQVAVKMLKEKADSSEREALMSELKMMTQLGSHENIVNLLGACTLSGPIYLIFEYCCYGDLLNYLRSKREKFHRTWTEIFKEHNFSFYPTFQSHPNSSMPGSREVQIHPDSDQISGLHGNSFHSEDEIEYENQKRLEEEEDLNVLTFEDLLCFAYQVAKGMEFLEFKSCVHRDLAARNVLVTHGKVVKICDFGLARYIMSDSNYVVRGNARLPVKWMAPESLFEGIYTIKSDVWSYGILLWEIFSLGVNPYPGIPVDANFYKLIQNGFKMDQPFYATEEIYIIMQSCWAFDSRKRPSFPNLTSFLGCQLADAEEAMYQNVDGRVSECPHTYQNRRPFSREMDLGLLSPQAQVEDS

Assay [5] has as its target FRK (Homo sapiens, UniProt P42685). To be noted: 10 μM.
For assay [6], the target named is T3, ITK (Homo sapiens, UniProt Q08881).
T3 sequence (Q08881 1-620): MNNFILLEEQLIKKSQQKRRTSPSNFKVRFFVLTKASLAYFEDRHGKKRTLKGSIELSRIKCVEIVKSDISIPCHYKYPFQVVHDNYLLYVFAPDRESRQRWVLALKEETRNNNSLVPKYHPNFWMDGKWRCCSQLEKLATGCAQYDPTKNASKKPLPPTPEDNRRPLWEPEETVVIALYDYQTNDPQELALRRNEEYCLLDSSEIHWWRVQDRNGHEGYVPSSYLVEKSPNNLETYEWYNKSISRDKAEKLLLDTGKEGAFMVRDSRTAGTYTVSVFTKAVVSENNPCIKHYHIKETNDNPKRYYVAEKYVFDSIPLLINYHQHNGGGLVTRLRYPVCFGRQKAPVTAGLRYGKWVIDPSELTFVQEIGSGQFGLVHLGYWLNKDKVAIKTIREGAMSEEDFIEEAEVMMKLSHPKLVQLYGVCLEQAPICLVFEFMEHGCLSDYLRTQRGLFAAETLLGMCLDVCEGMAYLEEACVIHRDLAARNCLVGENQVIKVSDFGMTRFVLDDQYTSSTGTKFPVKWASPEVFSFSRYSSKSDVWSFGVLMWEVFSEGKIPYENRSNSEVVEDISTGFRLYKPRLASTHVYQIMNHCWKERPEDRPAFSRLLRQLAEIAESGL
The following applies: 10 μM.

Assay [7] deals with KIT(V559D) (Homo sapiens, UniProt P10721, V559D). The following applies: 10 μM.
The target of assay [8] is EPHA5 (Homo sapiens, UniProt P54756). Briefly: biochemical. To be noted: read-out: Percent control.
Assay [9] concerns the target T4, EPHB2 (Homo sapiens, UniProt P29323).
T4 sequence (P29323 19-1055): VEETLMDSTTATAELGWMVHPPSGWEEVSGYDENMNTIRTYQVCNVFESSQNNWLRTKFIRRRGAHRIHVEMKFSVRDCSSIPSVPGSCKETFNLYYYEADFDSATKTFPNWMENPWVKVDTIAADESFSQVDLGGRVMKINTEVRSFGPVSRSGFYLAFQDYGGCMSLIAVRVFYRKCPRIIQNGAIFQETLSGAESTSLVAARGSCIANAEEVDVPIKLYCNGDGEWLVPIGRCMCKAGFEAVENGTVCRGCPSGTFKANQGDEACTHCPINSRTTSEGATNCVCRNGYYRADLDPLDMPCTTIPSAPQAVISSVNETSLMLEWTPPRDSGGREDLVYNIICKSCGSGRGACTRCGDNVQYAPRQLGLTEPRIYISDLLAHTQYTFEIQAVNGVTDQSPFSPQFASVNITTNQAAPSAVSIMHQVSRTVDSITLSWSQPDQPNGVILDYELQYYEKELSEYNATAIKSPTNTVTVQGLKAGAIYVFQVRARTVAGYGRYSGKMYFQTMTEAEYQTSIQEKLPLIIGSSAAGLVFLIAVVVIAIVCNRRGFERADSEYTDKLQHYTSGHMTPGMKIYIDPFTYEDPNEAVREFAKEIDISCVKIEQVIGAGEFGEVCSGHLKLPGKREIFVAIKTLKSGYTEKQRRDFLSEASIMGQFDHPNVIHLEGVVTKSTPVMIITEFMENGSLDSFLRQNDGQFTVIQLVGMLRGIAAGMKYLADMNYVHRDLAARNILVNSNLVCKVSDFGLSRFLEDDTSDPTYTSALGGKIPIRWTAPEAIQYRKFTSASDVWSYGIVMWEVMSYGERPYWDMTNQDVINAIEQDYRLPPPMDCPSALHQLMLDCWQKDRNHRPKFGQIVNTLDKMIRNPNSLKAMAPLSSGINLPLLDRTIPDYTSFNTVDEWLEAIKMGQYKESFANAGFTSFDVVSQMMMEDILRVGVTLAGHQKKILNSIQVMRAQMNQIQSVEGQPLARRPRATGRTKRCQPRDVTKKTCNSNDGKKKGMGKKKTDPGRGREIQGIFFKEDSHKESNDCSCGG
Kind of assay: biochemical. To be noted: read-out: Percent control.

Where two headings read alike, the source gives them in different places.

T1 sequence (P04626 23-1255): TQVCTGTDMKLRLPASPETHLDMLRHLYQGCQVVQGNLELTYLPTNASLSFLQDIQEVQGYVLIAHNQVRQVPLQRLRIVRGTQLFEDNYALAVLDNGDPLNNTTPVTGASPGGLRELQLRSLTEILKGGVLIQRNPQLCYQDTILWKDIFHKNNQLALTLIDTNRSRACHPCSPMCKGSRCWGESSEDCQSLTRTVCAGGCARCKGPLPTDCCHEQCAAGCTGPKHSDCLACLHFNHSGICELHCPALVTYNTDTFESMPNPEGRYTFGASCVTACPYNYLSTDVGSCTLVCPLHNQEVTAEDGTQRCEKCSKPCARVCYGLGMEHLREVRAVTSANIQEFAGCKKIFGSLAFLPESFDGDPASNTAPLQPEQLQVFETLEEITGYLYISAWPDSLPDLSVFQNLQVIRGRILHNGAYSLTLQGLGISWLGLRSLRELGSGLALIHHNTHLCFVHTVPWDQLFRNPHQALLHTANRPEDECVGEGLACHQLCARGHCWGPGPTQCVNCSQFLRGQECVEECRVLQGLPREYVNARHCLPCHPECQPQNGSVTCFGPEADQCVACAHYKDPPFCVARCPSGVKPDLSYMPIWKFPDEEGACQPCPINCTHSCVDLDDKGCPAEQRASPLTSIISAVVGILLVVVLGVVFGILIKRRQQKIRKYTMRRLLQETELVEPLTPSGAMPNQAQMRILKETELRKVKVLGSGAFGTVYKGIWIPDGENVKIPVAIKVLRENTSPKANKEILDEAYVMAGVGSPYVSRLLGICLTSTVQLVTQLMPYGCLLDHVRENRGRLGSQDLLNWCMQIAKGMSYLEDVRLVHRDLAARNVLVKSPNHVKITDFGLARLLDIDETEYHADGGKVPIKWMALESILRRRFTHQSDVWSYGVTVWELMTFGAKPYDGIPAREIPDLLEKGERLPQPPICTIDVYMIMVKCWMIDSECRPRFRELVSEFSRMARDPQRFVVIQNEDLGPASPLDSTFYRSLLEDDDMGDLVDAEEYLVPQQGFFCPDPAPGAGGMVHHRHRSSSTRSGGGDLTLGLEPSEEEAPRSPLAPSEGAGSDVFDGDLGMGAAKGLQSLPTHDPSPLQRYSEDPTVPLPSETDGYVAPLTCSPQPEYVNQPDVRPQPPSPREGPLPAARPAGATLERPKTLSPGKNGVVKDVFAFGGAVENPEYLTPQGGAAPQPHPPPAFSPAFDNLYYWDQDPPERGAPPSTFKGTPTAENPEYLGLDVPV
Chain of KIT(V559D) (P10721 26-976 V559D): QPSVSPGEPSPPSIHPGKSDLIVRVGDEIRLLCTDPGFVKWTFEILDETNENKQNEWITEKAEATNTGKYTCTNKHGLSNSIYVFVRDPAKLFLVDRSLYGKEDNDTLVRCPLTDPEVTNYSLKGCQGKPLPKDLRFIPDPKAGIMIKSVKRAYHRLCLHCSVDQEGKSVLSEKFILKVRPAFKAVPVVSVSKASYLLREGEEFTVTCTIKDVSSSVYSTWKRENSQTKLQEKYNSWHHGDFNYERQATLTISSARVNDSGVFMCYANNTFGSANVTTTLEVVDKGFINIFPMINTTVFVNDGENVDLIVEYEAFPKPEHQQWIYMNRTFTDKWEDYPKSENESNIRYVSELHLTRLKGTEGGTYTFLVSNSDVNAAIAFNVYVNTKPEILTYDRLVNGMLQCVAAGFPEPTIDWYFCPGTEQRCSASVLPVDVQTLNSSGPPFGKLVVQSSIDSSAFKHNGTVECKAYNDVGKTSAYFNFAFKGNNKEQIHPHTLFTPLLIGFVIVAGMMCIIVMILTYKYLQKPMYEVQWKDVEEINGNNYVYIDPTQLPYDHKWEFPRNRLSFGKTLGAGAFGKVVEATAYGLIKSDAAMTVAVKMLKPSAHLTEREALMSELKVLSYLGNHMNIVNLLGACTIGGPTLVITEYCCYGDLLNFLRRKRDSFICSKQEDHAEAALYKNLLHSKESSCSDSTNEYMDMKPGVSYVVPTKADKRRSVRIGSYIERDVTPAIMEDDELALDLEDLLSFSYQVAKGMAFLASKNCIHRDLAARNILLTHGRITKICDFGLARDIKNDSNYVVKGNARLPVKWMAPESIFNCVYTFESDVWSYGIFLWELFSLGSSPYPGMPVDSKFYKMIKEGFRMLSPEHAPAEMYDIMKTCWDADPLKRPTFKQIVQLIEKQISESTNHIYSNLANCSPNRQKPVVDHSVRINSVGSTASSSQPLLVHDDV
Chain of EPHA5 (P54756 25-1037): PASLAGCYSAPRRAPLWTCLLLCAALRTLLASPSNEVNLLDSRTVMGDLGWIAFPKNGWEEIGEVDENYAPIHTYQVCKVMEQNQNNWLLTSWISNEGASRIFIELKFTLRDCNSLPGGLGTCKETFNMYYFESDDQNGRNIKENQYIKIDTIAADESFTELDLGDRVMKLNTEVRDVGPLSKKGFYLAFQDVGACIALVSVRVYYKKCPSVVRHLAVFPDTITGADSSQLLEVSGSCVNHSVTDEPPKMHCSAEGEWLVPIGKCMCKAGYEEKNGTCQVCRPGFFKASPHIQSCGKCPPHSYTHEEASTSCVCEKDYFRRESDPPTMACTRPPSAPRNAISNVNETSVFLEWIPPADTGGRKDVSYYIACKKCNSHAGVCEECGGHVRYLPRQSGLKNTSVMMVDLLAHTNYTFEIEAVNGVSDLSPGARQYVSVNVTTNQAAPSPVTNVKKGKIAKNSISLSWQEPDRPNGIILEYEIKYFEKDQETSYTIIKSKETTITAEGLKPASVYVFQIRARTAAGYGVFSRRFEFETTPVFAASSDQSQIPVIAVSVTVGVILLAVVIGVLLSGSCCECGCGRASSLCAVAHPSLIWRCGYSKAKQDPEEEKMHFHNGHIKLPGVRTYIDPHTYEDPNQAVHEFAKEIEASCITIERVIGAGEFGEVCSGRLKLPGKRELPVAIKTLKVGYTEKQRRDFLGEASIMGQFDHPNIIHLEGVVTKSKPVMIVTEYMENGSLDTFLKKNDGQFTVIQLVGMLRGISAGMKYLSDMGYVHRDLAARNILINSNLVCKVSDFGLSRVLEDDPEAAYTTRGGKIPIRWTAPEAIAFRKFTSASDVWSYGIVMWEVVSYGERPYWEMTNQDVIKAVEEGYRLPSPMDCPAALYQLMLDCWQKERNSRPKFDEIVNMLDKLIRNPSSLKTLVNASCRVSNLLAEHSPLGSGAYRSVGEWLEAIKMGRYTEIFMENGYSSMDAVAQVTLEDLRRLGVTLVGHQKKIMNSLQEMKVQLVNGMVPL
Chain of FRK (P42685 whole entry): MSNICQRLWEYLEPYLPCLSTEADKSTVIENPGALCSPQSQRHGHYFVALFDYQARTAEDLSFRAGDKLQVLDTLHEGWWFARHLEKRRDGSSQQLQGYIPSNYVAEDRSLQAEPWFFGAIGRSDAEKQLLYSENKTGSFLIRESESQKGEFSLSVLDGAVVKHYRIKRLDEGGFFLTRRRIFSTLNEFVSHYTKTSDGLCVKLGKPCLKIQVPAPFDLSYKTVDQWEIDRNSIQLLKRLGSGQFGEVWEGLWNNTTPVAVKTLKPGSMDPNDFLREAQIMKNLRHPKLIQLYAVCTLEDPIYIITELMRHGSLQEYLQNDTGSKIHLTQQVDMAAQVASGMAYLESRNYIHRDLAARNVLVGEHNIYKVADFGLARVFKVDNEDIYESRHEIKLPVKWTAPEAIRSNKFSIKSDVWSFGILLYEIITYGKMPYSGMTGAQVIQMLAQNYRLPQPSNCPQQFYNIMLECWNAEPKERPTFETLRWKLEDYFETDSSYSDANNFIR
Chain of FGFR2 (P21802 22-821): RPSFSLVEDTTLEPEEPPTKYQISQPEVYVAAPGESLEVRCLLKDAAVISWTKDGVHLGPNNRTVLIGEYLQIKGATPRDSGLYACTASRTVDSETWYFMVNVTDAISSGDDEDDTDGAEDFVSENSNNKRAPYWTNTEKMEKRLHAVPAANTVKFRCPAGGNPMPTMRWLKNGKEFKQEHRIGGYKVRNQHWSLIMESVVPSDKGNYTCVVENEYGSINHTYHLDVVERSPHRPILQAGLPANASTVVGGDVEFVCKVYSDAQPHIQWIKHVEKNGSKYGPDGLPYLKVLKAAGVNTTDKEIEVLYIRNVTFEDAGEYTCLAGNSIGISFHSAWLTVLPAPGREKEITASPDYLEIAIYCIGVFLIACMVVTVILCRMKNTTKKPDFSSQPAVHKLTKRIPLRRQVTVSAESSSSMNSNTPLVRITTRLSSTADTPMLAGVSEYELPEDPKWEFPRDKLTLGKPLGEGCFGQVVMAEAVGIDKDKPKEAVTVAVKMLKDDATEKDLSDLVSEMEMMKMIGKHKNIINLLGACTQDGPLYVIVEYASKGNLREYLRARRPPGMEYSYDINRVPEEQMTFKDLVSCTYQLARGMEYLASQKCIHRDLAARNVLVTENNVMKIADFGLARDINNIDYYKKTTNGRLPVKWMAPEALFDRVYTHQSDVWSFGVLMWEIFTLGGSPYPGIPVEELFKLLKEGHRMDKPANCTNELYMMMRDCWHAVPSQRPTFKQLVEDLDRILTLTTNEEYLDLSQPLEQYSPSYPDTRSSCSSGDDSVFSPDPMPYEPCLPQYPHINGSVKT

`Cc1ccc(NC(=O)c2ccc(CN3CCN(C)CC3)cc2)cc1Nc1nccc(-c2cccnc2)[n+]1[Pt-2]1([Cl])[NH2+]C2CCCCC2[NH2+]1` (centres unmarked) [1b, oxaliplatin-imatinib]: the Percent control in assay [1] (ERBB2, 10 μM) turned out to be 82%; in assay [2] it was 99%; in assay [3] it was 100%; in assay [4] (FLT3(D835Y), 10 μM) it was 81%; in assay [5], 58%; in assay [6], 100%. For the same molecule, the Percent control in assay [7] was 0%.

In the case of `C#Cc1cccc(Nc2c3cc(OCCOC)c(OCCOC)cc3nc[n+]2[Pt@SP2-2]([NH3+])([NH3+])[Cl])c1` [2a, cisplatin-erlotinib], the Percent control in [1] (ERBB2, 10 μM) is listed as 21%; in [2], 79%; in [3], 91%; in assay [4], 21; in assay [5] it was 75%; in [6], 84%. The molecule also had a Percent control in assay [7] of 88%.

Consider `COc1cc2c(Nc3ccc(Br)cc3F)[n+]([Pt-2]3([Cl])[NH2+]C4CCCCC4[NH2+]3)cnc2cc1OCC1CCN(C)CC1` (centres unmarked) [3b, oxaliplatin-vandetanib], for which the Percent control in assay [3] was 67%; in assay [4], 46; in assay [5], 56%; in [6] it was 95%; in assay [7], 0.5%.

For the molecule `C#Cc1cccc(Nc2ncnc3cc(OCCOC)c(OCCOC)cc23)c1` [Erlotinib], in assay [1], the remaining binding at 10 µM is 22.5%. Besides, the remaining activity at 10 µM in assay [8] was determined as 6.6%; in [9] it was 100%.

As to `Cc1ccc(NC(=O)c2ccc(CN3CCN(C)CC3)cc2)cc1Nc1nccc(-c2cccnc2)n1` [Imatinib, reference compound], the Percent control was determined as 100% in assay [1] (ERBB2, 10 μM); 100% in [2]; 100% in assay [3]; 100% in assay [4] (FLT3(D835Y), 10 μM); 13.0% in [5]. Besides, the remaining activity at 10 µM in assay [8] and in assay [9] was 100% in each case.

As to `COc1cc2c(Nc3ccc(Br)cc3F)ncnc2cc1OCC1CCN(C)CC1` [Vandetanib, reference compound], in assay [1] (ERBB2, 10 μM), the remaining binding at 10 µM worked out at 20.6%. Also, the remaining activity at 10 µM turned out to be 2.3% in [8] and 4.2% in assay [9].
